Marks after values point to notes of the source that are not given here.
Columns and labels:
[1] = system: MIA-induced osteoarthritis pain; test: Rat model of mono-iodoacetic acid (MIA) induced osteoarthritis pain, hind limb grip force; assay type: in vivo; conditions: mean percent effect
Description: Members of the TrkA inhibitors described above were tested and found effective in reducing osteoarthritis pain. The compounds tested were assessed in an in vivo model well known to those skilled in the art, the rat model of mono-iodoacetic acid induced osteoarthritis pain. A general review of various models of pain can be found in Joshi and Honore, Expert Opinion in Drug Discovery (2004) 1, pp. 323-334, and in the book ‘Drug Discovery and Evaluation, 2nd edition (H. Gerhard Vogel, editor; Springer-Verlag, New York, 2002; pp. 702-706). Pain behavior was assessed by measurement of hind limb grip force (GF) in adult osteoarthritic rats. Male Sprague Dawley rats, generally weighing 125-150 g, were injected in the unilateral knee join with a single intra-articular injection of sodium monoiodoacetate (MIA). Rats were tested at 21-28 days following MIA injection. A behavioral measure of activity-induced pain was carried out. Measurements of the peak hind limb grip force were conducted by recording the maximum compressive force (CFmax), in grams of force, exerted on a hind limb strain gauge setup, in a commercially available grip force measurement system (Columbus Instruments, Columbus, Ohio). During testing, each rat was gently restrained by grasping it around its rib cage and then allowed to grasp the wire mesh frame attached to the strain gauge. The experimenter then moved the animal in a rostral-to-caudal direction until the grip was broken. Each rat was sequentially tested twice at an approximately 2-3 minute interval to obtain a raw mean grip force (CFmax). This raw mean grip force data was in turn converted to a maximum hindlimb cumulative compressive force (CFmax), as the grams of force/kg of body weight, for each animal. For evaluating the compound effects, the hind limb grip force testing in the MIA-treated rats was conducted generally 30-60 minutes after dosing with the test compound. A group of age-matched naïve (not injected with MIA) animals was added as a comparator to the drug-dosed groups. The vehicle control response for each group of MIA-treated animals was defined as the 0% response (0% effect), whereas the naïve control group was defined as the normal response and as 100% effect. The % effect=(Treatment CFmax−Vehicle CFmax)[…]]×100). Higher % effect numbers indicate increased relief from the pain in the model, with 100% indicating a return to the level of response seen in normal (non-osteoarthritic) animals. All experiments evaluating drug effects in this model were conducted in a randomized blinded fashion. Male Sprague Dawley rats (generally 250-300 g body weight at the time of testing) obtained from Charles River Laboratories (Wilmington, Mass.) were used for all experiments, unless indicated otherwise. The animals were housed in Association for Assessment and Accreditation of Laboratory Animal Care (AAALAC) approved facilities at AbbVie in a temperature-regulated environment under a controlled 12-hour light-dark cycle, with lights on at 6:00 a.m. Food and water were available ad libitum at all times except during testing. All testing was done following procedures outlined in protocols approved by AbbVie Institutional Animal Care and Use Committee.

TrkA = TrkA (Homo sapiens (Human), UniProt P04629); test: TrkA kinase HTRF enzyme inhibition assay; assay type: biochemical; conditions: TrkA pre-incubated with 200 μM ATP
TrkA, sequence (P04629 33-796): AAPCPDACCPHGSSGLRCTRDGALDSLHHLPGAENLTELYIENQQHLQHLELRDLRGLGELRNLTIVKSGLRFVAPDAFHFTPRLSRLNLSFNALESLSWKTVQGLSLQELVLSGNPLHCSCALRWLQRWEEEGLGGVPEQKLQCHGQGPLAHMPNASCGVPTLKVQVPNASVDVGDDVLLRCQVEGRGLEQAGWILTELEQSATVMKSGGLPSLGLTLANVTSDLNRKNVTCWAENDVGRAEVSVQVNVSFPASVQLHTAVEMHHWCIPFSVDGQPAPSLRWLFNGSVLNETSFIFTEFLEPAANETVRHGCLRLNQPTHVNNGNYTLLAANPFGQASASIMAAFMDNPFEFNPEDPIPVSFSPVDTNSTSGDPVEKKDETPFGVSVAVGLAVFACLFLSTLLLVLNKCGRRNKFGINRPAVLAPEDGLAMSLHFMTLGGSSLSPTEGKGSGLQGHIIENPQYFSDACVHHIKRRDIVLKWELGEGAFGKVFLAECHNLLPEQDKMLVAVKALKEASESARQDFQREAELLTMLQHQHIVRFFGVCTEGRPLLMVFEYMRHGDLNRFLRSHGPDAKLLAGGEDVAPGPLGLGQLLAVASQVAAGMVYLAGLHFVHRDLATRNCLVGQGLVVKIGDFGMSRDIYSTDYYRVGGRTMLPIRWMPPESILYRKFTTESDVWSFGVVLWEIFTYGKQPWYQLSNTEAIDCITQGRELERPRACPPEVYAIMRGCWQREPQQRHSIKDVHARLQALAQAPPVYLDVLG
Method in brief: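 TrkA (2-10 nM) pre-activated 20 min with 200 μM ATP in HEPES pH 7.4/Mg/Mn buffer, compound added for 10 min, then biotinylated LCK-analog peptide (125 nM) for 1 h at ambient temperature. HTRF phosphotyrosine detection (665/620 ratio); duplicate half-log dilutions, IC50 from initial-rate inhibition via equation 1.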

[2] = 30 mg/kg p.o., tested 30-60 minutes postdosing

CCOc1nc(N2CCN(C(C)=O)CC2)ccc1NC(=O)c1coc2c1C(=O)N(CCO)CC2 [Example 9, N-[6-(4-acetylpiperazin-1-yl)-2-ethoxypyridin-3-yl]-5-(2-hydroxyethyl)-4-oxo-4,5,6,7-tetrahydrofuro[3,2-c]pyridine-3-carboxamide]
% Effect (hind limb grip force, MIA model) [1, 2]: 69% **

COc1nc(N2CCN(C(=O)N3CCOCC3)CC2)ccc1NC(=O)c1coc2c1C(=O)NC(C)(C)C2 [Example 121, N-{2-methoxy-6-[4-(morpholin-4-ylcarbonyl)piperazin-1-yl]pyridin-3-yl}-6,6-dimethyl-4-oxo-4,5,6,7-tetrahydrofuro[3,2-c]pyridine-3-carboxamide]
IC50 (TrkA): 18.1 nM
% Effect (hind limb grip force, MIA model) [1, 2]: 74% ***

COc1cc(N2CCN(C(C)=O)CC2)ccc1NC(=O)c1coc2c1C(=O)NC(C)(C)C2 [Example 126, N-[4-(4-acetylpiperazin-1-yl)-2-methoxyphenyl]-6,6-dimethyl-4-oxo-4,5,6,7-tetrahydrofuro[3,2-c]pyridine-3-carboxamide]
IC50 (TrkA): 25 nM
% Effect (hind limb grip force, MIA model) ([1]; 100 mg/kg p.o., tested 3 hours post dose): 47% **

CCOc1nc(N2CCN(C(C)=O)CC2)ccc1NC(=O)c1coc2c1C(=O)NC(C)(C)C2 [Example 128, N-[6-(4-acetylpiperazin-1-yl)-2-ethoxypyridin-3-yl]-6,6-dimethyl-4-oxo-4,5,6,7-tetrahydrofuro[3,2-c]pyridine-3-carboxamide]
IC50 (TrkA): 5.4 nM
% Effect (hind limb grip force, MIA model) ([1]; 30 mg/kg p.o., tested 3 hours post dose): 55% ***

Cn1cc2cc(NC(=O)c3coc4c3C(=O)CC(C)(C)C4)ccc2n1 [Example 147, 6,6-dimethyl-N-(2-methyl-2H-indazol-5-yl)-4-oxo-4,5,6,7-tetrahydro-1-benzofuran-3-carboxamide]
IC50 (TrkA): 16.1 nM
% Effect (hind limb grip force, MIA model) ([1]; 300 mg/kg p.o., tested 3 hours post dose): 69% ***

COCCOc1nc(N2CCN(C(C)=O)CC2)ccc1NC(=O)c1coc2c1C(=O)NC(C)(C)C2 [Example 177, N-[6-(4-acetylpiperazin-1-yl)-2-(2-methoxyethoxyl)pyridin-3-yl]-6,6-dimethyl-4-oxo-4,5,6,7-tetrahydrofuro[3,2-c]pyridine-3-carboxamide]
IC50 (TrkA): 12.2 nM
% Effect (hind limb grip force, MIA model) [1, 2]: 68% ***

— patent US9777020B2, “Furo-3-carboxamide derivatives and methods of use” (AbbVie Inc., priority 2014, dated 2017)
